Patent US20220323406A1, “METHODS AND COMPOSITIONS FOR DIFFERENTIATING STEM CELLS” (Massachusetts Institute of Technology, priority 2019, published 2022)

Tests used:
[1] = system: ENR+CD organoids (ISC to Paneth cell differentiation); assay: Primary screen: CCh-stimulated lysozyme secretion LYZ.S, 2.5-D 384-well ENR+CD organoid differentiation; assay type: cell-based, mouse; conditions: primary screen; for Dose.FC.LYZ.S: FC relative to plate median
Source text: (§1) High-throughput screening.

ENR+CD organoids = assay: Primary screen: ATP (CellTiter-Glo 3D, CTG) cell number/viability, 2.5-D 384-well ENR+CD organoids; conditions: primary screen; for Dose.FC.CTG: FC relative to plate median;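 as to all read-outs here: compounds given at plating and again on day 3 over a 6-day differentiation from ENR+CV stem-cell-enriched precursors, ATP measured on day 6, plate median as control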
[2] = system: ENR+CD organoids (ISC to Paneth cell differentiation); assay: Primary screen: basal (non-stimulated) lysozyme secretion LYZ.NS, 2.5-D 384-well ENR+CD organoid differentiation; assay type: cell-based, mouse; conditions: primary screen; for Dose.FC.LYZ.NS: FC relative to plate median; for Z.LYZ.NS: standard z score
Source text: as §1

| Structure (SMILES) | Dose.FC.LYZ.S (log2 fold change) ([1]; dose 0.08 uM) | Dose.FC.LYZ.S (log2 fold change) ([1]; dose 0.40 uM) | Dose.FC.LYZ.S (log2 fold change) ([1]; dose 2.00 uM) | Dose.FC.LYZ.S (log2 fold change) ([1]; dose 10.00 uM) | Dose.FC.CTG (log2 fold change) (ENR+CD organoids; dose 0.08 uM) | Z.CTG (standard z score) (ENR+CD organoids; dose 0.08 uM) | Dose.FC.CTG (log2 fold change) (ENR+CD organoids; dose 0.40 uM) | Z.CTG (standard z score) (ENR+CD organoids; dose 0.40 uM) | Dose.FC.CTG (log2 fold change) (ENR+CD organoids; dose 2.00 uM) | Z.CTG (standard z score) (ENR+CD organoids; dose 2.00 uM) | Dose.FC.CTG (log2 fold change) (ENR+CD organoids; dose 10.00 uM) | Z.CTG (standard z score) (ENR+CD organoids; dose 10.00 uM) | Dose.FC.LYZ.NS (log2 fold change) ([2]; dose 0.08 uM) | Z.LYZ.NS (standard z score) ([2]; dose 0.08 uM) | Dose.FC.LYZ.NS (log2 fold change) ([2]; dose 0.40 uM) | Z.LYZ.NS (standard z score) ([2]; dose 0.40 uM) | Dose.FC.LYZ.NS (log2 fold change) ([2]; dose 2.00 uM) | Z.LYZ.NS (standard z score) ([2]; dose 2.00 uM) | Dose.FC.LYZ.NS (log2 fold change) ([2]; dose 10.00 uM) | Z.LYZ.NS (standard z score) ([2]; dose 10.00 uM) | further results |
| --- | --- | --- | --- | --- | --- | --- | --- | --- | --- | --- | --- | --- | --- | --- | --- | --- | --- | --- | --- | --- | --- |
| Cc1cc(SCc2sc(-c3ccc(C(F)(F)F)c(F)c3)nc2C)ccc1OCC(=O)O [GW0742] | 0.048 | 0.106 | 0.014 | −0.183 | −0.751 | −1.794 | −0.489 | −1.167 | −0.249 | −0.596 | −0.451 | −1.078 | 0.052 | 0.454 | 0.045 | 0.390 | 0.026 | 0.231 | −0.152 | −1.322 |  |
| CCn1c(=O)c2c(nc(/C=C/c3ccc(OC)c(OC)c3)n2C)n(CC)c1=O [Istradefylline] | −0.029 | −0.087 | −0.096 | −0.057 | −0.045 |  | 0.066 |  | −0.157 |  | −0.038 |  | −0.015 | −0.131 | −0.035 | −0.304 | −0.003 | −0.022 | −0.041 | −0.353 |  |
| Cc1c(C(=O)NN2CCCCC2)nn(-c2ccc(Cl)cc2Cl)c1-c1ccc(Cl)cc1 [Rimonabant] |  |  |  |  |  |  |  |  |  |  |  |  |  |  |  |  |  |  |  |  | Dose.FC.LYZ.S ([1]; dose 0.08 uM): 0.089 log2 fold change; Dose.FC.LYZ.S ([1]; dose 0.40 uM): −0.003 log2 fold change; Dose.FC.LYZ.S ([1]; dose 2.00 uM): −0.053 log2 fold change; Dose.FC.LYZ.S ([1]; dose 10.00 uM): −0.098 log2 fold change; Dose.FC.CTG (ENR+CD organoids; dose 0.08 uM): 0.256 log2 fold change; Dose.FC.CTG (ENR+CD organoids; dose 0.40 uM): 0.206 log2 fold change; Dose.FC.CTG (ENR+CD organoids; dose 2.00 uM): 0.235 log2 fold change; Dose.FC.CTG (ENR+CD organoids; dose 10.00 uM): 0.063 log2 fold change; Dose.FC.LYZ.NS ([2]; dose 0.08 uM): 0.108 log2 fold change; Z.LYZ.NS ([2]; dose 0.08 uM): 0.936; Dose.FC.LYZ.NS ([2]; dose 0.40 uM): −0.063 log2 fold change; Z.LYZ.NS ([2]; dose 0.40 uM): −0.545; Dose.FC.LYZ.NS ([2]; dose 2.00 uM): −0.054 log2 fold change; Z.LYZ.NS ([2]; dose 2.00 uM): −0.467; Dose.FC.LYZ.NS ([2]; dose 10.00 uM): −0.044 log2 fold change; Z.LYZ.NS ([2]; dose 10.00 uM): −0.385 |
| C[C@@H](Oc1cc(-n2cnc3ccc(CN4CCN(C)CC4)cc32)sc1C(N)=O)c1ccccc1C(F)(F)F [GSK461364] | 0.112 | −0.093 | −0.352 | −0.390 | 0.160 | 0.383 | −0.154 | −0.368 | −0.628 | −1.500 | −0.621 | −1.484 | 0.078 | 0.682 | −0.096 | −0.834 | −0.246 | −2.138 | −0.287 | −2.498 |  |
